From US10738056B2 (Aduro BioTech, Inc., priority 2017, dated 2020)

Target: Human cGAS amino acids 155-522 (Homo sapiens (Human), UniProt Q8N884)
Assay: cGAS biochemical activity assay (ATP remaining, Kinase-Glo Max luminescence)
Details: human cGAS 155-522, ATP remaining (Kinase-Glo Max); read-out: cGAS IC50

Chain of Human cGAS amino acids 155-522 (Q8N884 157-522): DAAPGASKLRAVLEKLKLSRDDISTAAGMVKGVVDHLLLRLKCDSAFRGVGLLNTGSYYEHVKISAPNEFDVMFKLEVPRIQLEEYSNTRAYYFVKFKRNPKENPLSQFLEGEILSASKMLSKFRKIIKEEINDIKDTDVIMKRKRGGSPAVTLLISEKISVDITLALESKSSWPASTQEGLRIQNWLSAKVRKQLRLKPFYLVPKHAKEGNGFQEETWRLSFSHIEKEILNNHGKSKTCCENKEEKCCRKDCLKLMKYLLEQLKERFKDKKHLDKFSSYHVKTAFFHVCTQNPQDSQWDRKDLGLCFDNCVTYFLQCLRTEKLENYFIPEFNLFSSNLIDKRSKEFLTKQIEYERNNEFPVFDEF

IC50	SMILES
20 to 250 µM	Cc1[nH]c2c(-c3ccccc3)c(C(F)(F)F)nn2c(=O)c1-c1nnc(C2CCCNC2)o1 (centres unmarked) [Compound D1036, 5-methyl-3-phenyl-6-(5-(piperidin-3-yl)-1,3,4-oxadiazol-2-yl)-2-(trifluoromethyl)pyrazolo[1,5-a]pyrimidin-7(4H)-one]
20 to 250 µM	Cc1[nH]c2c(-c3ccccc3)c(C(F)(F)F)nn2c(=O)c1C(=O)Nc1ccc(C(F)(F)F)cc1 [Compound A1007, 5-methyl-7-oxo-3-phenyl-2-(trifluoromethyl)-N-(4-(trifluoromethyl)phenyl)-4,7-dihydropyrazolo[1,5-a]pyrimidine-6-carboxamide]
> 250 µM	Cc1cccc(-c2c(C(F)(F)F)nn3c(=O)c(-c4nc5c(o4)CCCC5)c(C)[nH]c23)c1 [Compound C1034, 5-methyl-6-(4,5,6,7-tetrahydrobenzo[d]oxazol-2-yl)-3-(m-tolyl)-2-(trifluoromethyl)pyrazolo[1,5-a]pyrimidin-7(4H)-one]
> 250 µM	COc1cccc(N(C)C(=O)c2c(C)[nH]c3c(-c4ccccc4)c(C(F)(F)F)nn3c2=O)c1 [Compound A1114, N-(3-methoxyphenyl)-N,5-dimethyl-7-oxo-3-phenyl-2-(trifluoromethyl)-4,7-dihydropyrazolo[1,5-a]pyrimidine-6-carboxamide]
20 to 250 µM	Cc1ccccc1NC(=O)c1c(C)[nH]c2c(-c3ccccc3)c(C(F)(F)F)nn2c1=O [Compound A1037, 5-methyl-7-oxo-3-phenyl-N-(o-tolyl)-2-(trifluoromethyl)-4,7-dihydropyrazolo[1,5-a]pyrimidine-6-carboxamide]
> 250 µM	Cc1[nH]c2c(C3CCCC3)c(C(F)(F)F)nn2c(=O)c1-c1ccccc1 [Compound C1266, 3-cyclopentyl-5-methyl-6-phenyl-2-(trifluoromethyl)pyrazolo[1,5-a]pyrimidin-7(4H)-one]
< 20 µM	COc1cccn2cc(-c3c(C)[nH]c4c(-c5ccccc5)c(C(F)(F)F)nn4c3=O)nc12 [Compound C1044, 6-(8-methoxyimidazo[1,2-a]pyridin-2-yl)-5-methyl-3-phenyl-2-(trifluoromethyl)pyrazolo[1,5-a]pyrimidin-7(4H)-one]
> 250 µM	COc1cccc(NC(=O)c2c(C)[nH]c3c(-c4ccccc4)c(S(C)(=O)=O)nn3c2=O)c1 [Compound A1126, N-(3-methoxyphenyl)-5-methyl-2-(methylsulfonyl)-7-oxo-3-phenyl-4,7-dihydropyrazolo[1,5-a]pyrimidine-6-carboxamide]
> 250 µM	CN(Cc1ccccc1)C(=O)c1c[nH]c2c(-c3ccccc3)c(C(F)(F)F)nn2c1=O [Compound A1013, N-benzyl-N-methyl-7-oxo-3-phenyl-2-(trifluoromethyl)-4,7-dihydropyrazolo[1,5-a]pyrimidine-6-carboxamide]
< 20 µM	COc1cccc(NCCc2c(C)[nH]c3c(-c4ccccc4)c(C(F)(F)F)nn3c2=O)c1 [Compound B1015, 6-(2-((3-methoxyphenyl)amino)ethyl)-5-methyl-3-phenyl-2-(trifluoromethyl)pyrazolo[1,5-a]pyrimidin-7(4H)-one]
20 to 250 µM	COc1cccc2oc(-c3c(C(=O)N4CCCCC4)[nH]c4c(-c5ccccc5)c(C(F)(F)F)nn4c3=O)nc12 [Compound C1186, 6-(4-methoxybenzo[d]oxazol-2-yl)-3-phenyl-5-(piperidine-1-carbonyl)-2-(trifluoromethyl)pyrazolo[1,5-a]pyrimidin-7(4H)-one]
> 250 µM	Cc1[nH]c2c(-c3ccccc3)c(C(F)(F)F)nn2c(=O)c1-c1nc2cc(Cl)ccc2o1 [Compound C1028, 6-(5-chlorobenzo[d]oxazol-2-yl)-5-methyl-3-phenyl-2-(trifluoromethyl)pyrazolo[1,5-a]pyrimidin-7(4H)-one]
> 250 µM	Cc1[nH]c2c(C(C)C)c(C(F)(F)F)nn2c(=O)c1Cc1ccccc1 [Compound C1268, 6-benzyl-3-isopropyl-5-methyl-2-(trifluoromethyl)pyrazolo[1,5-a]pyrimidin-7(4H)-one]
20 to 250 µM	Cc1[nH]c2c(-c3ccccc3)c(C(F)(F)F)nn2c(=O)c1CC(=O)Nc1ccccc1N [Compound B1001, N-(2-aminophenyl)-2-(5-methyl-7-oxo-3-phenyl-2-(trifluoromethyl)-4,7-dihydropyrazolo[1,5-a]pyrimidin-6-yl)acetamide]
20 to 250 µM	COc1cccc2oc(-c3c(C)[nH]c4c(-c5cccnc5)c(C(F)(F)F)nn4c3=O)nc12 [Compound C1129, 6-(4-methoxybenzo[d]oxazol-2-yl)-5-methyl-3-(pyridin-3-yl)-2-(trifluoromethyl)pyrazolo[1,5-a]pyrimidin-7(4H)-one]
20 to 250 µM	Cc1[nH]c2c(-c3ccccc3)c(C(F)(F)F)nn2c(=O)c1C(=O)Nc1ccccc1OC(C)C [Compound A1060, N-(2-isopropoxyphenyl)-5-methyl-7-oxo-3-phenyl-2-(trifluoromethyl)-4,7-dihydropyrazolo[1,5-a]pyrimidine-6-carboxamide]

IC50	SMILES
> 250 µM	COc1ccc(CN)c2oc(-c3c(C)[nH]c4c(-c5ccccc5)c(C(F)(F)F)nn4c3=O)nc12 [Compound C1191, 6-(7-(aminomethyl)-4-methoxybenzo[d]oxazol-2-yl)-5-methyl-3-phenyl-2-(trifluoromethyl)pyrazolo[1,5-a]pyrimidin-7(4H)-one]
20 to 250 µM	COc1cccc2oc(-c3c(C(=O)NCCN(C)C)[nH]c4c(-c5ccccc5)c(C(F)(F)F)nn4c3=O)nc12 [Compound C1212, N-(2-(dimethylamino)ethyl)-6-(4-methoxybenzo[d]oxazol-2-yl)-7-oxo-3-phenyl-2-(trifluoromethyl)-4,7-dihydropyrazolo[1,5-a]pyrimidine-5-carboxamide]
> 250 µM	Cc1[nH]c2c(-c3ccccc3)c(C(F)(F)F)nn2c(=O)c1-c1nnc(-c2cccc(N)c2)o1 [Compound D1079, 6-(5-(3-aminophenyl)-1,3,4-oxadiazol-2-yl)-5-methyl-3-phenyl-2-(trifluoromethyl)pyrazolo[1,5-a]pyrimidin-7(4H)-one]
20 to 250 µM	COc1cccc2oc(-c3c(C(=O)N4CCC[C@@H]4CO)[nH]c4c(-c5ccccc5)c(C(F)(F)F)nn4c3=O)nc12 [Compound C1207, (R)-5-(2-(hydroxymethyl)pyrrolidine-1-carbonyl)-6-(4-methoxybenzo[d]oxazol-2-yl)-3-phenyl-2-(trifluoromethyl)pyrazolo[1,5-a]pyrimidin-7(4H)-one]
20 to 250 µM	COc1cccc2c1CN(c1c(C)[nH]c3c(-c4ccccc4)c(C(F)(F)F)nn3c1=O)C2=O [Compound C1220, 6-(4-methoxy-1-oxoisoindolin-2-yl)-5-methyl-3-phenyl-2-(trifluoromethyl)pyrazolo[1,5-a]pyrimidin-7(4H)-one]
20 to 250 µM	Cc1[nH]c2c(-c3ccccc3)c(C(F)(F)F)nn2c(=O)c1C(=O)Nc1ccncc1 [Compound A1047, 5-methyl-7-oxo-3-phenyl-N-(pyridin-4-yl)-2-(trifluoromethyl)-4,7-dihydropyrazolo[1,5-a]pyrimidine-6-carboxamide]
> 250 µM	Cc1[nH]c2c(-c3ccccc3)c(C(F)(F)F)nn2c(=O)c1C(=O)N1CCOCC1 [Compound A1004, 5-methyl-6-(morpholine-4-carbonyl)-3-phenyl-2-(trifluoromethyl)pyrazolo[1,5-a]pyrimidin-7(4H)-one]
20 to 250 µM	COCC1CCCCN1c1nnc(-c2c(C)[nH]c3c(-c4ccccc4)c(C(F)(F)F)nn3c2=O)o1 (centres unmarked) [Compound D1060, 6-(5-(2-(methoxymethyl)piperidin-1-yl)-1,3,4-oxadiazol-2-yl)-5-methyl-3-phenyl-2-(trifluoromethyl)pyrazolo[1,5-a]pyrimidin-7(4H)-one]
> 250 µM	Cc1[nH]c2c(-c3ccccc3)c(C(F)(F)F)nn2c(=O)c1C(=O)N1CCN(c2ccccc2)CC1 [Compound A1003, 5-methyl-3-phenyl-6-(4-phenylpiperazine-1-carbonyl)-2-(trifluoromethyl)pyrazolo[1,5-a]pyrimidin-7(4H)-one]
20 to 250 µM	COc1cccc2oc(-c3c(C(=O)N(C)CC(=O)O)[nH]c4c(-c5ccccc5)c(C(F)(F)F)nn4c3=O)nc12 [Compound C1197, N-(6-(4-methoxybenzo[d]oxazol-2-yl)-7-oxo-3-phenyl-2-(trifluoromethyl)-4,7-dihydropyrazolo[1,5-a]pyrimidine-5-carbonyl)-N-methylglycine]
> 250 µM	COc1cccc2oc(-c3c(C)[nH]c4c(-c5ccccc5)c(C5CC5)nn4c3=O)nc12 [Compound C1242, 2-cyclopropyl-6-(4-methoxybenzo[d]oxazol-2-yl)-5-methyl-3-phenylpyrazolo[1,5-a]pyrimidin-7(4H)-one]
20 to 250 µM	COc1cccc2oc(-c3c(C)[nH]c4c(-c5ccccc5)c(OCC(=O)O)nn4c3=O)nc12 [Compound C1072, 2-((6-(4-methoxybenzo[d]oxazol-2-yl)-5-methyl-7-oxo-3-phenyl-4,7-dihydropyrazolo[1,5-a]pyrimidin-2-yl)oxy)acetic acid]
20 to 250 µM	COc1cccc2oc(-c3c(C)[nH]c4c(-c5ccccc5)c(=O)[nH]n4c3=O)nc12 [Compound C1049, 6-(4-methoxybenzo[d]oxazol-2-yl)-5-methyl-3-phenylpyrazolo[1,5-a]pyrimidine-2,7(1H,4H)-dione]
< 20 µM	COc1cccc2oc(-c3c(P(C)(C)=O)[nH]c4c(-c5ccccc5)c(C(F)(F)F)nn4c3=O)nc12 [Compound C1284, 5-(dimethylphosphoryl)-6-(4-methoxybenzo[d]oxazol-2-yl)-3-phenyl-2-(trifluoromethyl)pyrazolo[1,5-a]pyrimidin-7(4)-one]
< 20 µM	COc1cc(F)cc(NC(=O)c2c(C)[nH]c3c(-c4ccccc4)c(C(F)(F)F)nn3c2=O)c1 [Compound A1133, N-(3-fluoro-5-methoxyphenyl)-5-methyl-7-oxo-3-phenyl-2-(trifluoromethyl)-4,7-dihydropyrazolo[1,5-a]pyrimidine-6-carboxamide]
20 to 250 µM	Cc1[nH]c2c(-c3ccccc3)c(C(F)(F)F)nn2c(=O)c1-c1nnc(-c2cccnc2)o1 [Compound D1063, 5-methyl-3-phenyl-6-(5-(pyridin-3-yl)-1,3,4-oxadiazol-2-yl)-2-(trifluoromethyl)pyrazolo[1,5-a]pyrimidin-7(4H)-one]
